Converted amounts (≈) assume the structure as drawn. Values belong to the compound of their own block, whether it stands above or below them.
Columns and labels:
L1210 tumor cells = assay: Measurement of anticancer activity (L1210 growth, 2 days, trypan blue); assay type: cell-based; conditions: Mus musculus, 48 h, Table 25, L1210, 2.5×10^4 cells/ml
Description: Tumor cells were grown in an RPMI 1640 medium containing of 10% fetal calf serum.
The compound was dissolved in 99.5% ethanol, adjusted before use so that the final concentration of ethanol was 0.1% or less, and added to the medium.
The control was 0.1% ethanol, and L1210 tumor cells were inoculated in the medium in a concentration of 2.5×10^4 cells/ml and grown for 2 days. The number of surviving cells were measured by trypan blue staining.

L1210 cancer cells = assay: Evaluation of antitumor activity (L1210 growth, 4 days, trypan blue); assay type: cell-based; conditions: Mus musculus, 96 h, Table 37, L1210, 1×10^5 cells/ml
Description: Cancer cells were grown in an RPMI 1640 culture medium containing 10% of fetal calf serum.
The compound to be tested was dissolved in 99.5% ethanol and was added to the medium so that the final concentration of the ethanol was 0.1% or less. As a control, 0.1% ethanol was used. L1210 cancer cells were inoculated at a concentration of 1×10^5 cells/ml in the medium and were grown for 4 days. The number of live cells was determined by trypan blue staining.

[1] = test system: human osteoblast (KK-3, 18PDL); assay: Determination (2) of bone formation activity (KK-3, 14 days); assay type: cell-based; conditions: Table 39; for ALP: control 0.44 ± 0.12; for Ca: control 106 ± 12; for P: control 61 ± 10
Description: (§1) Human osteoblast (KK-3, 18PDL) was cultured in α-MEM containing 10% fetal bovine serum, and when a stable growth was attained, a predetermined concentration of the compound was added in the presence of 2 mM α-glycerophosphoric acid salt, followed by treatment for 14 days. The cell layer was washed with physiological salt solution and the alkali phosphatase activity then measured by absorption at OD415. Then, calcium and phosphorus were extracted with a 2N hydrochloric acid solution and quantitated.

[2] = test system: human osteoblast (KK-3, 18PDL); assay: Determination (3) of bone formation activity (KK-3, 14 days); assay type: cell-based; conditions: Table 40; for ALP: control 0.72 ± 0.17; for P: control 51 ± 5; for Ca: control 90 ± 8
Description: as §1, with “a physioligical” for “physiological”, “Next,” for “Then,”

human osteoblasts = conditions: Koshihara et al., Biochemical Society of Japan (Preprints, 1988, p.767); cited from earlier work
[3] = test system: human osteoblast (SAM-1, 12PDL); assay: Determination (1) of bone formation activity (SAM-1, 25 days); assay type: cell-based; conditions: Table 38; for Ca per DNA: control 0.386 ± 0.245; for ALP per DNA: control 1.148 ± 0.050; for P per DNA: control 1.528 ± 0.316
Description: Human osteoblast (SAM-1, 12PDL) was cultured in α-MEM containing 10% fetal bovine serum, and when a stable growth was attained, a predetermined concentration of the compound was added in the presence of 2 mM α-glycerophosphoric acid salt, followed by treatment for 25 days. The cell layer was washed with Hank's solution and the alkali phosphatase activity then measured by absorption at OD410. Next, calcium and phosphorus were extracted with a 5% perchloric acid solution and quantitated, and DNA was extracted with 5% perchloric acid at 90° C., and the weight thereof quantitated. These evaluations were conducted according to the methods of Koshihara et al (Biochemical and Biophysical Research Communication Vol 145, No. 2, 1987, p. 651).

IC50 (L1210 cancer cells): 1 µg/mL (≈ 2.3 µM)
SMILES: C[S+]([O-])C1=CC(O)(CCCCOc2ccccc2)/C(=C/C=C/C(O)CCCO)C1=O (stereo not drawn) [drawing 1102, 2-methylsulfinyl-5-[( -- Z)-4,7-dihydroxy-2-heptenylidene]-4-(4-phenoxybutyl)-4-hydroxy-2-cyclopentenone]

IC50 (L1210 tumor cells): 0.02 µg/mL (≈ 0.0344 µM)
SMILES: CCOc1ccc2nc(SC3=CC(O)(CCCCOc4ccccc4)C(=CC=CC(O)CCCO)C3=O)sc2c1 (stereo not drawn) [drawing 1061]

IC50 (L1210 tumor cells): 2.3 µg/mL (≈ 4.25 µM)
SMILES: CCCCC1=C(Sc2nccn2C)C(=O)C(=CC=CC(O)CCCO)C1(O)CCCCOc1ccccc1 (stereo not drawn) [drawing 1063]

IC50 (L1210 tumor cells): 0.1 µg/mL (≈ 0.37 µM)
SMILES: CSC1=CC(O)C(=CC=CC(O)CCCO)C1=O (stereo not drawn) [drawing 1064]

IC50 (L1210 cancer cells): 2 µg/mL (≈ 4.44 µM)
SMILES: CS(=O)(=O)C1=CC(O)(CCCCOc2ccccc2)/C(=C\C=C\C(O)CCCO)C1=O (stereo not drawn) [2-methylsulfonyl-5-[( -- E)-4,7-dihydroxy-2-heptenylidene]-4-(4-phenoxybutyl)-4-hydroxy-2-cyclopentenone]

IC50 (L1210 cancer cells): 3.5 µg/mL (≈ 8.74 µM)
SMILES: CSC1=CC(=CCCCOc2ccccc2)/C(=C/C=C/C(O)CCCO)C1=O (stereo not drawn) [drawing 1103, 2-methylthio-5-[( -- Z)-4,7-dihydroxy-2-eptenylidene]-4-(4-phenoxybutylidene)-2-cyclopentenone]

IC50 (L1210 cancer cells): 4 µg/mL (≈ 9.74 µM)
SMILES: CCCCCC(O)C=CC1C=C([S+](C)[O-])C(=O)C1=CCCCCCC(=O)OC (stereo not drawn) [2-methylsulfinyl-5-(6-methoxycarbonyl-hexylidene)-4-(3-hydroxy-1-octenyl)-2-cyclopentenone]

IC50 (L1210 cancer cells): 1.2 µg/mL (≈ 2.87 µM)
SMILES: CSC1=CC(O)(CCCCOc2ccccc2)/C(=C/C=C/C(O)CCCO)C1=O (stereo not drawn) [drawing 1101, 2-methylthio-5-[( -- Z)-4,7-dihydroxy-2-eptenylidene]-4-(4-phenoxybutyl)-4-hydroxy-2-cyclopentenone]

IC50 (L1210 tumor cells): 0.15 µg/mL (≈ 0.31 µM)
SMILES: Cn1ccnc1SC1=CC(O)(CCCCOc2ccccc2)C(=CC=CC(O)CCCO)C1=O (stereo not drawn) [drawing 1062]

IC50 (L1210 tumor cells): 1.9 µg/mL (≈ 4.72 µM)
SMILES: CSC1=CC(CCCCOc2ccccc2)C(=CC=CC(O)CCCO)C1=O (stereo not drawn)

IC50 (L1210 tumor cells): 0.78 µg/mL (≈ 1.6 µM)
SMILES: O=C1C(SC2CCCCC2)=CC(O)(CCCCOc2ccccc2)C1=CC=CC(O)CCCO (stereo not drawn) [drawing 1059]

IC50 (L1210 tumor cells): 0.32 µg/mL (≈ 0.637 µM)
SMILES: Cn1ccnc1SC1=CC(O)(CCCCOc2ccccc2)C(C(O)C=CC(O)CCCO)C1=O (stereo not drawn) [drawing 1066]

Second part, the compound before the results:

SMILES: COC(=O)COc1cccc(C=C2C(=O)C(SC)=CC2(O)CCCCOc2ccccc2)c1 (stereo not drawn) [drawing 1060]
IC50 (L1210 tumor cells): 0.83 µg/mL (≈ 1.77 µM)

SMILES: CCCCCC(O)C=CC1C=C(SC)C(=O)C1=CCCCCCC(=O)OC (stereo not drawn) [drawing 1097, 2-methylthio-5-(6-methoxycarbonyl-hexylidene)-4-(3-hydroxy-1-octenyl)-2-cyclopentenone]
IC50 (L1210 cancer cells): 5 µg/mL (≈ 12.7 µM)

SMILES: C[S+]([O-])C1=CC(=CCCCOc2ccccc2)/C(=C/C=C/C(O)CCCO)C1=O (stereo not drawn) [2-methylsulfinyl-5-[( -- Z)-4,7-dihydroxy-2-heptenylidene]-4-(4-phenoxybutylidene)-2-cyclopentenone]
IC50 (L1210 cancer cells): 0.1 µg/mL (≈ 0.24 µM)

SMILES: CSC1=CC(O)(CCCCOc2ccccc2)/C(=C/C=C/C(O)CCCO)C1=O (stereo not drawn) [drawing 1106, 2-methylthio-5-[( -- Z)-4,7-dihydroxy-2-heptenylidene]-4-(4-phenoxybutyl)-4-hydroxy-2-cyclopentenone]
ALP ([1]; 10^-6 M): 1.12 OD 415 nm/dish
Ca ([1]; 10^-6 M): 168 μg/dish
ALP ([1]; 10^-7 M): 0.48 ± 0.08 OD 415 nm/dish
P ([1]; 10^-7 M): 63 ± 6 μg/dish
Ca ([1]; 10^-7 M): 111 ± 9 μg/dish
ALP ([1]; 10^-8 M): 0.28 ± 0.06 OD 415 nm/dish
P ([1]; 10^-8 M): 47 ± 6 μg/dish
Ca ([1]; 10^-8 M): 84 ± 10 μg/dish

SMILES: CSC1=CC(=CCCCOc2ccccc2)C(=C/C=C\C(O)CCCO)C1=O (stereo not drawn) [2-methylthio-5-[( -- Z)-4,7-dihydroxy-2-heptenylidene]-4-(4-phenoxybutylidene)-2-cyclopentenone]
ALP ([2]; 10^-6 M): 0.94 ± 0.11 OD 415 nm/dish
P ([2]; 10^-6 M): 60 ± 0.5 μg/dish
Ca ([2]; 10^-6 M): 109 μg/dish
ALP ([2]; 10^-7 M): 0.94 ± 0.07 OD 415 nm/dish
P ([2]; 10^-7 M): 48 ± 4 μg/dish
Ca ([2]; 10^-7 M): 85 ± 10 μg/dish

SMILES: C[S+]([O-])C1=CC(O)(CCCCOc2ccccc2)/C(=C/C=C/C(O)CCCO)C1=O (stereo not drawn) [drawing 1109, 2-methylsulfinyl-5-[( -- Z)-4,7-dihydroxy-2-heptenylidene]-4-(4-phenoxybutylidene)-4-hydroxy-2-cyclopentenone]
ALP ([2]; 10^-6 M): 0.92 ± 0.9 OD 415 nm/dish
P ([2]; 10^-6 M): 61 ± 4 μg/dish
Ca ([2]; 10^-6 M): 109 μg/dish
ALP ([2]; 10^-7 M): 0.81 ± 0.11 OD 415 nm/dish
P ([2]; 10^-7 M): 52 ± 1 μg/dish
Ca ([2]; 10^-7 M): 89 ± 1 μg/dish

SMILES: CCCCC[C@H](O)/C=C/[C@H]1C(=O)C[C@H](O)[C@@H]1C/C=C\CCCC(=O)O [prostaglandin D2]
calcification by human osteoblasts (human osteoblasts): accelerated

SMILES: CSC1=CC(O)(CCCCOc2ccccc2)/C(=C\C=C\C(O)CCCO)C1=O (stereo not drawn) [2-methylthio-5-[( -- E)-4,7-dihydroxy-2-heptenylidene]-4-(4-phenoxybutyl)-4-hydroxy-2-cyclopentenone]
ALP ([1]; 10^-6 M): 0.97 OD 415 nm/dish
Ca ([1]; 10^-6 M): 168 μg/dish
ALP ([1]; 10^-7 M): 0.56 ± 0.08 OD 415 nm/dish
P ([1]; 10^-7 M): 64 ± 3 μg/dish
Ca ([1]; 10^-7 M): 114 ± 4 μg/dish
ALP ([1]; 10^-8 M): 0.24 ± 0.02 OD 415 nm/dish
P ([1]; 10^-8 M): 47 ± 2 μg/dish
Ca ([1]; 10^-8 M): 87 ± 6 μg/dish

SMILES: C[S+]([O-])C1=CC(O)(CCCCOc2ccccc2)/C(=C\C=C\C(O)CCCO)C1=O (stereo not drawn) [2-methylsulfinyl-5-[( -- E)-4,7-dihydroxy-2-heptenylidene]-4-(4-phenoxybutyl)-4-hydroxy-2-cyclopentenone]
IC50 (L1210 cancer cells): 1 µg/mL (≈ 2.3 µM)

SMILES: CSC1=CC(=CCCCOc2ccccc2)/C(=C/C=C/C(O)CCCO)C1=O (stereo not drawn) [drawing 1108, 2-methylthio-5-[( -- Z)-4,7-dihydroxy-2-heptenylidene]-4-(4-phenoxybutylidene)-2-cyclopentenone]
ALP ([2]; 10^-6 M): 0.75 ± 0.17 OD 415 nm/dish
P ([2]; 10^-6 M): 57 ± 1 μg/dish
Ca ([2]; 10^-6 M): 105 μg/dish
ALP ([2]; 10^-7 M): 0.69 ± 0.02 OD 415 nm/dish
P ([2]; 10^-7 M): 60 ± 14 μg/dish
Ca ([2]; 10^-7 M): 110 ± 30 μg/dish

SMILES: CSC1=CC(O)(CCCCOc2ccccc2)/C(=C/C=C/C(O)CCCO)C1=O (stereo not drawn) [drawing 1105, 2-methylthio-5-[( -- Z)-4,7-dihydroxy-2-heptenylidene]-4-(4-phenoxybutyl)-4-hydroxy-2-cyclopentenone]
Ca per DNA ([3]; 10^-6 M): 29.410 μg/μg DNA
ALP per DNA ([3]; 10^-6 M): 1.447 OD 410 nm/μg DNA
P per DNA ([3]; 10^-6 M): 5.743 ± 0.630 μg/μg DNA
Ca per DNA ([3]; 10^-7 M): 8.847 ± 1.485 μg/μg DNA
ALP per DNA ([3]; 10^-7 M): 0.333 ± 0.039 OD 410 nm/μg DNA
P per DNA ([3]; 10^-7 M): 5.270 ± 0.144 μg/μg DNA

SMILES: CCCCCC(O)C=CC1C=C(SC)C(=O)C1=CCCCCCC(=O)OC (stereo not drawn) [drawing 1111, 2-methylthio-5-(6-methoxy-carbonylhexylidene)-4-(3-hydroxy-1-octenyl)-2-cyclo-pentenone]
ALP ([2]; 10^-6 M): 0.68 ± 0.10 OD 415 nm/dish
P ([2]; 10^-6 M): 43 ± 4 μg/dish
Ca ([2]; 10^-6 M): 79 μg/dish
ALP ([2]; 10^-7 M): 0.73 ± 0.02 OD 415 nm/dish
P ([2]; 10^-7 M): 46 ± 2 μg/dish
Ca ([2]; 10^-7 M): 78 ± 4 μg/dish

Source: patent publication US5216183A, “Cyclopentanone/cyclopentenone derivative” (Teijin Limited, priority 1988, dated 1993)
